Data on 21 compounds can be found in US9567301B2, “Pyrrol-1-yl benzoic acid derivatives useful as myc inhibitors” (Whitehead Institute for Biomedical Research, priority 2012, dated 2017).

SMILES strings stand for the structures.

The test system of one assay is H2171 cells. Description: Cell viability assay (ATPlite), H2171. To be noted: cell viability, three days, ATPlite, NA: inactive under assay conditions. It counts as cell-based, human. On the procedure: (§1) This assay was used for the H2171 and MM1S cell data shown in Table 2, and for the Jurkat (an immortalized line of human T lymphocyte cells), Ly1 (OCI-Ly1 human non-Hodgkin lymphoma cell line), Ly4 (OCI-Ly4 human non-Hodgkin lymphoma cell line), H2172 (NCI-H2172 human non-small cell lung cancer cell line), and CA-46 (a human Burkitt's lymphoma cell line) cell data shown in Table 3 and FIG. 12. Cells were counted and adjusted to 60,000 cells/mL. Using a Biotek EL406, 50 μL of cells are media were distributed into 384 well white plates from Thermo. Immediately after plating, compound in DMSO was distributed to plates. For large plate sets, cells were returned to 37° C. incubator while not in use.
(§2) Compounds were added to plates using a 100 nL 384 well pin transfer manifold on a Janus workstation. Stocks were arrayed in 10 point quadruplicate dose response in DMSO stock in 384 well Greiner compound plates. After addition of compound, plates were incubated for three days in a 37° C. incubator.
(§3) Cell viability was read out using ATPlite from Perkin Elmer. Plates were removed from the incubator and brought to room temperature prior to use. Lyophilized powder was resuspended in lysis buffer and diluted 1:2 with DI water. 25 μL of this solution was added to each well using the Biotek liquid handler. Plates were sealed with adherent aluminum seals prior to vortexing and spinning down at 1000 g for 1 minute. Plates were incubated for 15 minutes at room temperature before signal was read on an Envision Plate Reader.

A further assay has as its system MM1S cells. Put plainly: Cell viability assay (ATPlite), MM1S. To be noted: for EC50: cell viability, three days, ATPlite, NA: inactive under assay conditions. It counts as cell-based, human. The method, then:
as §1, §2, §3
A general note: Cellular ATP, detected with luciferase, serves as a proxy for viable cell number.

A further assay deals with c-Myc/Max/Ebox DNA (Homo sapiens, UniProt P01106). Description: c-Myc/Max/Ebox DNA AlphaScreen assay. It counts as binding. More on the design: An exemplary assay uses full-length human c-Myc and Max proteins; his6 (cleaved yes); made in house. To be noted: c-Myc/Max/Ebox DNA AlphaScreen; NA: inactive under assay conditions; read-out: Biochemical IC50. The method, then:
This protocol was used to generate the biochemical data in Table 2 and FIG. 11. The primary AlphaScreen assay is amenable to 384-well and 1536-well plate formats for HTS. Human his6-c-Myc and his6-Max were used with biotinylated DNA containing a single Ebox sequence (biotin[…]) purchased from MWG Operon. Free c-Myc was generated from his6-c-Myc through thrombin cleavage of the his6 tag. For 384-well plate assays, 10 μL of a 2× solution of free c-Myc (25 nM final), Ni++-coated Acceptor Bead (25 μg/ml final), and biotinylated Ebox oligo (10 nM final) were added to 384-well plates with a Biotek EL406 liquid handler. 100 nL of compounds from stock plates were added by pin transfer using a Janus Workstation (PerkinElmer), allowing the compounds to interact with c-Myc prior to c-Myc binding with Max. In the current assay, DMSO was not allowed to exceed 2% v/v of the assay. 10 μl of 2× master mix containing streptavidin-coated donor beads (25 μg/ml final) and his6-Max (1.25 nM final) were added. AlphaScreen measurements were performed on an Envision 2104 (PerkinElmer) utilizing the manufacturer's protocol. The assay can also be performed in 1536-plate format with 8 μL total volume using two 4 μL additions (instead of […] and 10 μL respectively).
Assays are performed with minor modifications from the manufacturer's protocol (PerkinElmer). Both master mixes were made in room temperature assay buffer (50 mM HEPES, 150 mM NaCl, 0.2% w/v BSA, 0.02% w/v Tween20, 40 μg/ml glycogen, 500 μM DTT, pH 8.0, DTT and glycogen added fresh). Alpha beads were added to respective master solutions and wrapped in foil. All subsequent steps were performed in low light conditions. Solution 1: 2× solution of components with final concentrations of cMyc (25 nM), Ni-coated Acceptor Bead (25 μg/ml), and biotinylated Ebox oligo (10 nM). Solution 2: 2× solution of streptavidin-coated donor beads (25 μg/ml final) and his6-Max (1.25 nM final). […] Solution 1 were added to 384-well plate (AlphaPlate-384, PerkinElmer) with Biotek EL406 liquid handler and the plates were centrifuged at 1000 rpm for 1 minute. 100 nL of compounds from stock plates were added by pin transfer using a Janus Workstation. 10 μL Solution 2 were added with the liquid handler. Plates were sealed with foil to block light exposure and prevent evaporation. Plates were centrifuged at 1000 rpm for 1 minute followed by 2 hour incubation. AlphaScreen measurements were performed on an Envision 2104 utilizing the manufacturer's protocol. Excitation was at 680 nm for donor bead release of singlet oxygen and emission was read with a bandpass filter from 520-620 nm. Glycogen: Roche Diagnostics #10901393001. Plate 1536: Perkin Elmer, 6004350. Plate 384: Perkin Elmer, 6005350. Nickel-His Alpha Beads: 6760619R.

Sequence of c-Myc/Max/Ebox DNA (P01106 16-454): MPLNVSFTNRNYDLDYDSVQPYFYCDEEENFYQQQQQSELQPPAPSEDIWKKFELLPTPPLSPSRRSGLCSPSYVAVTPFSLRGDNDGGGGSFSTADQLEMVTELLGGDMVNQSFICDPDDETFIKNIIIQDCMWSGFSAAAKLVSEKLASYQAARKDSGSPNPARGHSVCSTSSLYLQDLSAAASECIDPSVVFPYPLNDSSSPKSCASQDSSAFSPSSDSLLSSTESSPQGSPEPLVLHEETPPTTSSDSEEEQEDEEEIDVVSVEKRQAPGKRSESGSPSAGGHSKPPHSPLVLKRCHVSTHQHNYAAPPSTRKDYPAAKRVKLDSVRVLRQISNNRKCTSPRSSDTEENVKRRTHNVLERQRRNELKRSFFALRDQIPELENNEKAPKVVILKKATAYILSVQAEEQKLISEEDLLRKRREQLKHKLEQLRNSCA

Turning to `CC(=O)OCOC(=O)c1ccc(C(=O)N/N=C/c2c(CO)cnc(C)c2O)cc1-n1c(C)ccc1C` [Compound 111], the EC50 with H2171 cells (Homo sapiens, NCI-H2171, 72 h) amounted to 2.4 µM; in the assay on MM1S cells (Homo sapiens, MM1.S, 72 h), 21.8 µM.
On the same counts, the results for `CC(=O)OCOC(=O)c1ccc(C(=O)N/N=C/c2ccc(S(=O)(=O)O)o2)cc1-n1c(C)ccc1C` [Compound 112] are 1.04 µM and 9.25 µM.
As to `CC(=O)OCOC(=O)c1ccc(-n2c(C)ccc2C)cc1O` [Compound 113], the EC50 in the assay with H2171 cells is 2.8 µM; with MM1S cells, 11 µM.
Take `CC(=O)OCOC(=O)c1cccc(/C=N/NC(=O)c2ccc(C(=O)OCOC(C)=O)c(-n3c(C)ccc3C)c2)c1` [Compound 114]: the EC50 in the assay on H2171 cells (Homo sapiens, NCI-H2171, 72 h) came to 1.21 µM; in the assay with MM1S cells (Homo sapiens, MM1.S, 72 h), 11.7 µM.
On to `CC(=O)OCOC(=O)c1ccc(C(=O)N/N=C/c2ccc3cccnc3n2)cc1-n1c(C)ccc1C` [Compound 115], for which the half-maximal effective concentration (EC50) in the assay on H2171 cells (Homo sapiens, NCI-H2171, 72 h) came out at 0.913 µM; in the assay on MM1S cells (Homo sapiens, MM1.S, 72 h) it was 13.6 µM.
For `Cc1ccc(C)n1-c1cc(C(=O)N/N=C\c2ccc(C(=O)O)s2)ccc1C(=O)O` [Compound 122], in the assay on H2171 cells (Homo sapiens, NCI-H2171, 72 h), the response was half-maximal at 174 µM (EC50). The IC50 on c-Myc/Max/Ebox DNA is 0.492 µM.
In the assay on H2171 cells (Homo sapiens, NCI-H2171, 72 h), `Cc1ccc(C)n1-c1cc(C(=O)N/N=C\c2ccc(S(=O)(=O)O)cc2)ccc1C(=O)O` [Compound 123] came in with an EC50 of 96.4 µM. Further, the IC50 on c-Myc/Max/Ebox DNA turned out to be 0.291 µM.
Turning to `COc1cc(-n2c(C)ccc2C)c(Cl)cc1C(=O)O` [Compound 131], a half-maximal effect with H2171 cells (Homo sapiens, NCI-H2171, 72 h) (EC50) was put at 3400 µM. Moreover, the IC50 at c-Myc/Max/Ebox DNA turned out to be 493 µM.
For the compound `Cc1ccc(C)n1-c1c(C(=O)O)cccc1[N+](=O)[O-]` [Compound 132], the EC50 in the assay on H2171 cells (Homo sapiens, NCI-H2171, 72 h) is 310 µM; with MM1S cells (Homo sapiens, MM1.S, 72 h), 647 µM.
Regarding `Cc1ccc(C)n1-c1ccccc1C(N)=O` [Compound 133], the EC50 in the assay on MM1S cells (Homo sapiens, MM1.S, 72 h) is 450 µM.
Turning to `Cc1ccc(C)n1-c1cnccc1C(=O)O` [Compound 135], the EC50 in the assay with MM1S cells (Homo sapiens, MM1.S, 72 h) was 305 µM. In addition, the IC50 on c-Myc/Max/Ebox DNA amounted to 6800 µM.
In the assay on H2171 cells (Homo sapiens, NCI-H2171, 72 h), `Cc1ccc(C)n1-c1cccc(C(=O)c2ccccc2)c1C(=O)O` [Compound 136] came in with an EC50 of 215 µM. The IC50 on c-Myc/Max/Ebox DNA stood at 94.7 µM.
With `Cc1c(C)c(C)n(-c2ccccc2C(=O)O)c1C` [Compound 138], the EC50 came out at 270 µM in the assay on H2171 cells (Homo sapiens, NCI-H2171, 72 h) and 194 µM in the assay with MM1S cells (Homo sapiens, MM1.S, 72 h).
On the same counts, the results for `O=C(O)c1ccccc1-n1c2ccccc2c2ccccc21` [Compound 141] are 268 µM and 148 µM.
`Cc1ccc(C)n1-c1cc(C(=O)NN)ccc1C(=O)O` [Compound 142] returned an EC50 in the assay on MM1S cells of 625 µM. Also, the IC50 on c-Myc/Max/Ebox DNA worked out at 7.58 µM.
Compound `CC(=O)OCOC(=O)c1ccc(-n2c(C)ccc2C)cc1O` [Compound 144] registered an EC50 in the assay on MM1S cells of 446 µM.
In the assay with H2171 cells (Homo sapiens, NCI-H2171, 72 h), `Cc1ccc(C)n1-c1ccc(Cl)cc1C(=O)O` [Compound 147] came in with an EC50 of 170 µM. The IC50 on c-Myc/Max/Ebox DNA came out at 11.5 µM.
`CC(=O)OCOC(=O)c1ccccc1-n1ccnc1C` [Compound 151]: the EC50 in the assay with H2171 cells (Homo sapiens, NCI-H2171, 72 h) worked out at 43.5 µM; in the assay on MM1S cells (Homo sapiens, MM1.S, 72 h) it was 156 µM.
Compound `Cc1ccc(C)n1-c1cc(C(=O)O)ccc1C(=O)O` [Compound 157] gave an EC50 in the assay with MM1S cells (Homo sapiens, MM1.S, 72 h) of 11000 µM.
In the assay with MM1S cells (Homo sapiens, MM1.S, 72 h), `Cc1ccc(C)n1-c1ccc(C(=O)O)c([N+](=O)[O-])c1` [Compound 163] displayed an EC50 of 98.5 µM. Moreover, the IC50 on c-Myc/Max/Ebox DNA was determined as 155 µM.
Turning to `CC(=O)OCOC(=O)c1cccc(/C=N/NC(=O)c2ccc(C(=O)OCOC(C)=O)c(-n3c(C)ccc3C)c2)c1` [acetomoxymethyl ester prodrug], the “cellular activity/potency in cellular proliferation assay” value with MM1S cells (MM1.S, prodrug relative to free acid (FIG. 3, FIG. 4)) is “increases cellular potency”.

The term EC50 denotes the concentration that produces a half-maximal response. A low value points to an effect from little substance. For orientation: IC50 means the concentration at which inhibition is half-maximal.
